Source: US20200038478A1, “POLYPEPTIDE AND COMPOSITION THEREOF FOR TREATING DISEASES OF METABOLIC SYSTEM” (WUHAN GRECTECH CO., LTD., priority 2017, published 2020)
Bridge positions count the residues as written; N and C are the ends. Ends that are not written are not given here.

Legend:
normal mice [1] = experiment: Hypoglycemic effect on normal mice after administration by gavage, with or without glucose (Example 11); type: in vivo, Kunming white mice; conditions: for Blood glucose level prior to administration: baseline
normal mice [2] = experiment: Hypoglycemic effect on normal mice after subcutaneous injection (Example 6); type: in vivo, Kunming white mice; conditions: for Blood glucose level at 15 min after administration / Blood glucose level at 30 min after administration / Blood glucose level prior to administration: 1 mg/mL at 0.05 ml/10 g, single subcutaneous injection on the back; for Blood glucose level prior to administration: baseline
normal mice [3] = experiment: Hypoglycemic effect of synthetic polypeptides on normal mice after subcutaneous injection (Example 9); type: in vivo, Kunming white mice; conditions: 1 mg/mL at 0.05 ml/10 g, single subcutaneous injection on the back
normal mice [4] = experiment: Hypoglycemic effect of the polypeptide on normal mice after tail vein injection (Example 3); type: in vivo, Kunming white mice; conditions: for Blood glucose level at 15 min after administration / Blood glucose level at 30 min after administration / Blood glucose level prior to administration: single tail vein injection; for Blood glucose level prior to administration: baseline
normal mice [5] = experiment: Natural extract vs solid-phase synthetic polypeptide, normal mice, subcutaneous injection (Example 7); type: in vivo, Kunming white mice; conditions: 1 mg/mL at 0.05 ml/10 g, single subcutaneous injection on the back; for Blood glucose level prior to administration: baseline
pepsin = biological target: T1, pepsin (Sus scrofa, UniProt P00791); experiment: Stability against pepsin in simulated gastric fluid, HPLC (Example 16); type: in vitro ADME; conditions: pH 1.5, 1 g pepsin per 100 mL, 37° C., 2 hours
T1 construct: purchased Sigma-Aldrich Company Ltd
T1 sequence (P00791 60-385): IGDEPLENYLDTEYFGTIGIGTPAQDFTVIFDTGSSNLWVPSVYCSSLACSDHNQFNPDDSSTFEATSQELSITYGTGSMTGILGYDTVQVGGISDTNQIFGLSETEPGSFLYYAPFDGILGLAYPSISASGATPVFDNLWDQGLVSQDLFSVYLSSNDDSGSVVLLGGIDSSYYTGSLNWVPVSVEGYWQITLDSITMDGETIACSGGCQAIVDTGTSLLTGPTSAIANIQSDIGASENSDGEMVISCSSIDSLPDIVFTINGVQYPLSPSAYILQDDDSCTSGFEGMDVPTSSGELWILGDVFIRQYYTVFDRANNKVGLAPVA
Description: (§1) Polypeptides were subject to enzymatic hydrolysis in simulated gastric and simulated intestinal fluids, respectively, to verify whether the polypeptides were resistance to the enzymatic hydrolysis of digestive enzymes. Control experiments were performed with albumin.
Preparation of simulated gastric fluid: water was added to diluted hydrochloric acid with a concentration of 1 mol/L, to adjust the pH to 1.5. 1 g pepsin per 100 mL solution was added, and after homogeneously mixing, the solution was filtered through a 0.22 μm sterile filter for use.
(§2) 10 μL of the polypeptide solution (10 mg/mL) was added to the simulated gastric fluid (1 mL) and simulated intestinal fluid (1 mL), respectively, and after homogeneously mixing, the mixtures were incubated in a water bath at 37° C. for 2 hours.
(§3) 1 mg of dried albumin powder was added to the simulated gastric fluid (1 mL) and simulated intestinal fluid (1 mL), respectively, and after homogeneously mixing, the mixtures were incubateed in a water bath at 37° C. for 2 hours.
(§4) The above enzymatic mixtures were detected by using HPLC.
(§5) Chromatographic conditions: mobile phase, water (containing 0.1% TFA)+acetonitrile (containing 0.1% TFA), gradient elution from 15% to 50% acetonitrile for 25 min, flow rate of 1 mL/min, detection wavelength of 214 nm, injection volume of 20 ul.

trypsin = experiment: Stability against trypsin in simulated intestinal fluid, HPLC (Example 16); type: in vitro ADME; conditions: pH 6.8, 1 g trypsin per 100 mL, 37° C., 2 hours
Description: as §1
Preparation of simulated intestinal fluid: 6.8 g of potassium dihydrogen phosphate was dissolved in 500 mL water, 0.4% (w/w) NaOH was added to adjust the pH to 6.8, and water was added to make up 1 L. 1 g trypsin per 100 mL solution was added, and after homogeneously mixing, the solution was filtered through a 0.22 μm sterile filter for use.
as §2, §3, §4, §5

normal mice [6] = experiment: Polypeptide vs insulin on normal mice after tail vein injection (Example 10); type: in vivo, Kunming white mice; conditions: single tail vein injection, polypeptide 2 mg/mL at 0.05 ml/10 g (10 mg/kg), insulin 0.5 U/mL (2.5 U/kg)
[7] = test system: mouse models of type 2 diabetes; experiment: Polypeptide mixture vs insulin, mouse models of type 2 diabetes, tail vein injection (Example 13); conditions: KK mice, single tail vein injection, polypeptide 2 mg/mL, insulin 0.5 U/mL, each 0.05 ml/10 g
[8] = test system: mouse models of type 2 diabetes; experiment: Polypeptide mixture vs insulin, mouse models of type 2 diabetes, subcutaneous injection (Example 14); conditions: KK mice, single subcutaneous injection on the back, polypeptide 2 mg/mL, insulin 0.5 U/mL, each 0.05 ml/10 g
[9] = test system: mouse models of type 2 diabetes; experiment: Polypeptide mixture vs insulin, mouse models of type 2 diabetes, intramuscular injection (Example 15); conditions: KK mice, single intramuscular injection in the lateral thigh, polypeptide 2 mg/mL, insulin 0.5 U/mL, each 0.05 ml/10 g
[10] = Group B, 1 mg/mL polypeptide in saline at 0.10 ml/10 g
[11] = Group C polypeptide+glucose, 1 mg/mL polypeptide in 10% glucose solution at 0.10 ml/10 g
[12] = Group A high-dose, 1 mg/mL at 0.10 ml/10 g
[13] = Group B medium-dose, 1 mg/mL at 0.05 ml/10 g
[14] = Group C low-dose, 1 mg/mL at 0.025 ml/10 g

Substance: ASCNGVCSPFDIPPCGSPLCRCIPVGLVIGKCRNPYG (disulfide 15-32, 3-20, 7-22; listed as Pisum sativum) [SEQ ID No. 10]
- Blood glucose level at 15 min after administration (normal mice [1]; [10]): 6.9 ± 0.3 mmol/L
- Blood glucose level at 30 min after administration (normal mice [1]; [10]): 6.4 ± 0.2 mmol/L
- Blood glucose level at 45 min after administration (normal mice [1]; [10]): 6.1 ± 0.3 mmol/L
- Blood glucose level at 60 min after administration (normal mice [1]; [10]): 6.1 ± 0.2 mmol/L
- Blood glucose level prior to administration (normal mice [1]; [10]): 6.7 ± 0.6 mmol/L
- Blood glucose level at 15 min after administration (normal mice [1]; [11]): 7.1 ± 0.3 mmol/L
- Blood glucose level at 30 min after administration (normal mice [1]; [11]): 6.9 ± 0.2 mmol/L
- Blood glucose level at 45 min after administration (normal mice [1]; [11]): 6.6 ± 0.3 mmol/L
- Blood glucose level at 60 min after administration (normal mice [1]; [11]): 6.2 ± 0.2 mmol/L
- Blood glucose level prior to administration (normal mice [1]; [11]): 6.8 ± 0.4 mmol/L

Substance: ASCNGVCSPFEMPPCGSSACRCIPVGLVVGYCRHPSG (listed as Pisum sativum) [SEQ ID No. 72, extracted polypeptide with H at position 34, outside general formula (I); raised blood glucose]
- Blood glucose level at 15 min after administration (normal mice [2]): 8.91 ± 0.7 mmol/L
- Blood glucose level at 30 min after administration (normal mice [2]): 10.4 ± 0.8 mmol/L
- Blood glucose level prior to administration (normal mice [2]): 7.3 ± 0.6 mmol/L
- hypoglycemic activity (conclusion) (normal mice [2]; normal mice, subcutaneous injection): no hypoglycemic activity

Substance: ASCNGVCSPFEMPPCGSSACRCIPVGLVVGYCRNPSG (disulfide 15-32, 3-20, 7-22) [SEQ ID No. 26]
- Blood glucose level at 15 min after administration (normal mice [2]): 5.3 ± 0.4 mmol/L
- Blood glucose level at 30 min after administration (normal mice [2]): 4.4 ± 0.3 mmol/L
- Blood glucose level prior to administration (normal mice [2]): 7.1 ± 0.5 mmol/L
- Blood glucose level at 15 min after administration (normal mice [3]): 5.3 ± 0.4 mmol/L
- Blood glucose level at 30 min after administration (normal mice [3]): 4.6 ± 0.3 mmol/L
- Blood glucose level at 45 min after administration (normal mice [3]): 3.2 ± 0.2 mmol/L
- Blood glucose level at 60 min after administration (normal mice [3]): 2.1 ± 0.2 mmol/L
- Blood glucose level prior to administration (normal mice [3]; baseline): 6.8 ± 0.3 mmol/L

Substance: ASCNGVCSPFEMPPCGTSACRCIPVGLFIGYCRNPSG (disulfide 15-32, 3-20, 7-22; listed as Pisum sativum) [SEQ ID No. 7]
- Blood glucose level at 15 min after administration (normal mice [4]; [12]): 3.3 ± 0.3 mmol/L
- Blood glucose level at 30 min after administration (normal mice [4]; [12]): 2.1 ± 0.3 mmol/L
- Blood glucose level prior to administration (normal mice [4]; [12]): 7.1 ± 0.5 mmol/L
- Blood glucose level at 15 min after administration (normal mice [4]; [13]): 4.3 ± 0.4 mmol/L
- Blood glucose level at 30 min after administration (normal mice [4]; [13]): 3.3 ± 0.3 mmol/L
- Blood glucose level prior to administration (normal mice [4]; [13]): 7.9 ± 0.6 mmol/L
- Blood glucose level at 15 min after administration (normal mice [4]; [14]): 5.7 ± 0.3 mmol/L
- Blood glucose level at 30 min after administration (normal mice [4]; [14]): 4.3 ± 0.3 mmol/L
- Blood glucose level prior to administration (normal mice [4]; [14]): 6.9 ± 0.5 mmol/L
- hypoglycemic activity (conclusion) (normal mice [4]; normal mice, intravenous injection): explicit hypoglycemic activity

Substance: ASCNGVCSPFEMPPCGTSACRCIPVGLVVGYCRNPSG [Polypeptide A] (disulfide 15-32, 3-20, 7-22; listed as Pisum sativum)
- Blood glucose level at 15 min after administration (normal mice [5]): 5.2 ± 0.4 mmol/L
- Blood glucose level at 30 min after administration (normal mice [5]): 4.4 ± 0.5 mmol/L
- Blood glucose level at 45 min after administration (normal mice [5]): 3.6 ± 0.3 mmol/L
- Blood glucose level at 60 min after administration (normal mice [5]): 2.2 ± 0.2 mmol/L
- Blood glucose level prior to administration (normal mice [5]): 6.8 ± 0.5 mmol/L

Substance: ASCNGVCSPFEMPPCGTSACRCIPVGLVVGYCRNPSG [Polypeptide B] (disulfide 15-32, 3-20, 7-22; listed as Pisum sativum)
- Blood glucose level at 15 min after administration (normal mice [5]): 5.5 ± 0.3 mmol/L
- Blood glucose level at 30 min after administration (normal mice [5]): 4.6 ± 0.2 mmol/L
- Blood glucose level at 45 min after administration (normal mice [5]): 3.3 ± 0.2 mmol/L
- Blood glucose level at 60 min after administration (normal mice [5]): 2.4 ± 0.1 mmol/L
- Blood glucose level prior to administration (normal mice [5]): 7.2 ± 0.6 mmol/L

Substance: Albumin: Serum albumin (bovine) standard
- enzymatic hydrolysis in simulated gastric fluid (pepsin): completely enzymatically hydrolyzed
- enzymatic hydrolysis in simulated intestinal fluid (trypsin): completely enzymatically hydrolyzed

Substance: Insulin
- Blood glucose level at 15 min after administration (normal mice [6]): 5.2 ± 0.4 mmol/L
- Blood glucose level at 30 min after administration (normal mice [6]): 3.6 ± 0.3 mmol/L
- Blood glucose level at 45 min after administration (normal mice [6]): 2.7 ± 0.4 mmol/L
- Blood glucose level at 60 min after administration (normal mice [6]): 2.2 ± 0.2 mmol/L
- Blood glucose level prior to administration (normal mice [6]; baseline): 7.7 ± 0.6 mmol/L
- Blood glucose level at 15 min after administration [7]: 8.5 ± 0.7 mmol/L
- Blood glucose level at 30 min after administration [7]: 7.5 ± 0.4 mmol/L
- Blood glucose level at 45 min after administration [7]: 6.1 ± 0.4 mmol/L
- Blood glucose level at 60 min after administration [7]: 4.8 ± 0.3 mmol/L
- Blood glucose level prior to administration ([7]; baseline): 14.3 ± 0.9 mmol/L
- Blood glucose level at 15 min after administration [8]: 8.8 ± 0.8 mmol/L
- Blood glucose level at 30 min after administration [8]: 7.1 ± 0.7 mmol/L
- Blood glucose level at 45 min after administration [8]: 6.4 ± 0.5 mmol/L
- Blood glucose level at 60 min after administration [8]: 5.0 ± 0.4 mmol/L
- Blood glucose level prior to administration ([8]; baseline): 11.6 ± 1.1 mmol/L
- Blood glucose level at 15 min after administration [9]: 11.1 ± 0.9 mmol/L
- Blood glucose level at 30 min after administration [9]: 9.6 ± 0.7 mmol/L
- Blood glucose level at 45 min after administration [9]: 7.3 ± 0.8 mmol/L
- Blood glucose level at 60 min after administration [9]: 5.2 ± 0.4 mmol/L
- Blood glucose level prior to administration ([9]; baseline): 13.4 ± 1.1 mmol/L
